Experiment [1] deals with Male mice of the Swiss Webster Strain. The experiment in a line: Calcium chloride-induced arrhythmia in anesthetized mice (survival). It is filed as in vivo. Conditions: Mus musculus, iv, Dose = 10 mg/kg i.v.; calcium chloride 200 mg/kg i.v. bolus 5, 15 or 30 minutes after drug; observed 15 minutes; read-out: CaCl2 #Mice Surviving #Mice Tested (converted). The source says:
(§1) Intravenous administration of high doses of calcium or potassium chloride in animals produces cardiac arrhythmias, cardiac fibrillation and cardiac arrest. Any agent that can prevent these events is considered an antiarrhythmic/antifibrillatory agent. (Meth. and Find Exptl. Clin Pharmacol.2:223-252(1980); Pharmacol, Ther. 24:401-433 (1984); Experimental Cardiac and Antiarrhythmic Drugs, L. Szekeres and Gy. J. Dapp, Akademiai Kiado Preso, Budapest, 9-448 (1971).)
(§2) The method employed is as follows: Male mice of the Swiss Webster Strain (Charles River, Wilmington, MA) weighing 25-35 g are anesthetized with ethyl carbamate (urethan) (1.5g/kg body weight i.p.). A 25-gauge needle attached to PE-20 tubing is inserted into a caudal vein for drug administration. The lead II ECG is recorded by needle electrodes placed subcutaneously in the limbs. All data is collected on a Gould Brush recorder. Animals are observed 5 minutes before drug administration. A 5, 15, or 30 minute period following drug administration is allowed before the bolus injection of calcium chloride, 200 mg/kg i.v. or potassium chloride, 62.5 mg/kg i.v. Control mice receive 4 ml/kg of 0.9% sodium chloride i.v. Mice are observed an additional 15 minutes for arrhythmias, fibrillation, survival or death. Any compound at a dose of less than 20 mg/kg i.v. that protects 3 out of 6 mice from cardiac death in either the potassium or calcium chloride test, is considered active.

Experiment [2] has the same test system. The experiment is described as follows: Potassium chloride-induced arrhythmia in anesthetized mice (survival). The experiment is classed as in vivo. Conditions: Mus musculus, iv, Dose = 10 mg/kg i.v.; potassium chloride 62.5 mg/kg i.v. bolus 5, 15 or 30 minutes after drug; observed 15 minutes; read-out: KCl #Mice Surviving #Mice Tested (converted).
From the text: as §1, §2

Experiment [3] deals with T1, thromboxane synthetase enzyme (Rattus norvegicus, UniProt P49430).
T1 construct: from tissue; host or cells: washed blood platelets from Okamoto-Aoki spontaneously hypertensive rats (SHR)
T1 sequence (P49430 1-533): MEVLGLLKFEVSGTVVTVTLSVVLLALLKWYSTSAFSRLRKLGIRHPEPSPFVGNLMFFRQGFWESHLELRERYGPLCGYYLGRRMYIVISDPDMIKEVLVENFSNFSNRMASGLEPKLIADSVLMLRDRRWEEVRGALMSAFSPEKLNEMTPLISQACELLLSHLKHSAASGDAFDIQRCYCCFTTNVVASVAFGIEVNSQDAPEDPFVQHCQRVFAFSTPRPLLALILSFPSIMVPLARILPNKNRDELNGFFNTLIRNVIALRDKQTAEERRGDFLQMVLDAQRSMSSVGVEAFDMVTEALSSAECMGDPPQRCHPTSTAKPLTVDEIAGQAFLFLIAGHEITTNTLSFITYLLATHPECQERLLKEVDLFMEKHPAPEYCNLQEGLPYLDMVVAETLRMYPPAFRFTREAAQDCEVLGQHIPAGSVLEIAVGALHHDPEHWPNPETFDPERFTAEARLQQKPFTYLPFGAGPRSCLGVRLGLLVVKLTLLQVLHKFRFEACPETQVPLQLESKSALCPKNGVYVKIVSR
The experiment is described as follows: Inhibition of thromboxane (TXB2) formation in washed rat platelets, TXB2 radioimmunoassay. The experiment is classed as biochemical, Okamoto-Aoki spontaneously hypertensive rats (SHR). Conditions: Concentration 1x10^-4M, platelet suspension incubated 10 minutes at 37 °C. Here is the method: Under urethan anesthesia, […] of arterial blood from Okamoto-Aoki spontaneously hypertensive rats (SHR) (Taconic Farms, Germantown, NY) between 19 and 24 weeks in age is collected in one ml of 3.2% sodium citrate in a polystyrene tube. The blood is diluted with 3 ml of cold saline and centrifuged at room temperature for 15 minutes at 460xg. The platelet rich plasma (PRP) is separated. The platelets are isolated by centrifuging the PRP for 10 minutes at 1060xg and are washed in 4 ml of cold oxygenated Krebs phosphate buffer, pH 7.4. The chilled platelets, recovered from centrifuging at 800xg for 10 minutes, are resuspended in oxygenated Krebs phosphate buffer and diluted to contain 4.5-6.0 x 10⁴ platelets/µ1. The inhibition of thromboxane (TX) formation is studied by determining the concentration of thromboxane B₂ (TXB₂), the stable hydrolysis product of TXA₂. Assay samples, prepared on ice, contain 200 µ1 platelet suspension, 50 µ1 saline, and 50 µ1 vehicle (saline) or drug under study. The samples are incubated for 10 minutes at 37 °C in a metabolic shaker. The reaction is terminated by immersing the tubes in an ice bath and adding 50 µl of 0.5M citric acid. The samples are centrifuged for 10 minutes in a refrigerated centrifuge and the supernatants thus obtained are decanted and stored at -20 °C. The TXB₂ content for each sample is determined by a direct radioimmunoassay (RIA) utilizing a TXB₂ specific RIA kit purchased from New England Nuclear, Boston, MA and expressed as pg TXB₂ formed per minute per sample, from which the percent inhibition of TXB₂ formation is calculated.

Where a name gives a salt, the structure may show the parent alone.

This is an account of results in patent EP0446604A2, “Pyridine and related aza heterocycle derivatives as cardiovascular agents” (AMERICAN CYANAMID COMPANY, priority 1990, dated 1991).

Consider `Cc1cccc(NCCCn2ccnc2)n1` [Example 10, N-[3-(1H-Imidazol-1-yl)propyl]-6-methyl-2-pyridinamine,(E)-2-butenedioate (2:3)], for which the responders at 10 mg/kg is 0% in experiment [1] and 50% in experiment [2].

As for `CC(=O)c1cc(C#N)c(NCCCn2ccnc2)nc1C` [Example 12, 5-Acetyl-2-[[3-(1H-Imidazol-1-yl)propyl]amino]-6-methyl-3-pyridinecarbonitrile], the inhibition at 100 µM in experiment [3] was 96%. For the same molecule, the responders at 10 mg/kg was 16.7% in experiment [1] and 66.7% in experiment [2].

`N#Cc1ccc(-c2cccc(C(F)(F)F)c2)nc1NCCCn1ccnc1` [Example 18, 2-[[3-(1H-Imidazol-1-yl)propyl]amino]-6-[3-(trifluoromethyl)phenyl]-3-pyridinecarbonitrile] returned an inhibition at 100 µM in experiment [3] of 98%.

`Cc1cc(C)c2ccc(NCCCn3ccnc3)nc2n1` [Example 24, N-[3-(1H-Imidazol-1-yl)propyl]-5,7-dimethyl-1,8-naphthyridin-2-amine, (E)-2-butenedioate (1:2)]: in experiment [3], 100 µM produced 93% inhibition. The responders at 10 mg/kg in experiment [1] is 16.7%; in experiment [2], 100%.

In turn, `c1cnc2nc(NCCCn3ccnc3)ccc2c1` [Example 27, N-[3-(1H-Imidazol-1-yl)propyl]-1,8-naphthyridin-2-amine,(E)-2-butenedioate (1:2)] displayed an inhibition at 100 µM in experiment [3] of 90%.

Regarding `Cc1cc(NCCCn2ccnc2)nc2nc(N)ccc12` [Example 34, N²-[3-(1H-Imidazol-1-yl)propyl]-4-methyl-1,8-naphthyridine-2,7-diamine], in experiment [3], the inhibition at 100 µM stood at 98%. The figures for the responders at 10 mg/kg in experiment [1] and in experiment [2] were 50% and 66.7%, respectively.

`c1ccc(-c2cc(NCCCn3ccnc3)nc3ccccc23)cc1` [Example 44, N-[3-(1H-Imidazol-1-yl)propyl]-4-phenyl-2-quinolinamine] came in with an inhibition at 100 µM in experiment [3] of 100%.

`N#Cc1ccc(NCCCn2ccnc2)nc1` [Example 45, 6-[[3-(1H-Imidazol-1-yl)propyl]amino]-3-pyridinecarbonitrile] showed an inhibition at 100 µM in experiment [3] of 92%.

Turning to `NC(=O)c1ccc(NCCCn2ccnc2)nc1` [Example 46, 6-[[3-(1H-Imidazol-1-yl)propyl]amino]-3-pyridinecarboxamide], the inhibition at 100 µM in experiment [3] was determined as 80%.

In turn, `Clc1cccc(NCCCn2ccnc2)n1` [Example 47, 6-Chloro-N-[3-(1H-imidazol-1-yl)propyl]-2-pyridinamine] yielded an inhibition at 100 µM in experiment [3] of 91%.

For the molecule `Cc1cccc2c(-c3ccccc3)cc(NCCCn3ccnc3)nc12` [Example 51, N-[3-(1H-Imidazol-1-yl)propyl]-8-methyl-4-phenyl-2-quinolinamine], 100 µM produced 89% inhibition in experiment [3].

`N#Cc1ccc(-c2ccncc2)nc1NCCCn1ccnc1` [Example 52, 2-[[3-(1H-Imidazol-1-yl)propyl]amino]-6-(4-pyridinyl)-3-pyridinecarbonitrile] had an inhibition at 100 µM in experiment [3] of 85%.

Take `c1ccc(-n2nc3ccc(NCCCn4ccnc4)nc3n2)cc1` [Example 56, N-[3-(1H-Imidazol-1-yl)propyl]-2-phenyl-2H-1,2,3-triazolo[4,5-b]pyridin-5-amine]: the inhibition at 100 µM in experiment [3] is 95%.

As to `O=[N+]([O-])c1ccc(Cl)nc1NCCCn1ccnc1` [Example 57, 6-Chloro-N-[3-(1H-imidazol-1-yl)propyl]-3-nitro-2-pyridinamine, monohydrochloride], in experiment [3], testing at 100 µM gave an inhibition of 94%.

Molecule `CC(=O)N(CCCn1ccnc1)c1ccc([N+](=O)[O-])cn1` [Example 58, N-[3-(1H-Imidazol-1-yl)propyl]-N-(5-nitro-2-pyridinyl)acetamide] gave an inhibition at 100 µM in experiment [3] of 83%.

For the molecule `N#Cc1ccc(NCCCn2ccnc2)nc1-c1cccc(C(F)(F)F)c1` [Example 71, 6-[[3-(1H-Imidazol-1-yl)propyl]amino]-2-[3-(trifluoromethyl)phenyl]-3-pyridinecarbonitrile, (E)-2-butenedioate (1:1)], 100 µM produced 100% inhibition in experiment [3].

The molecule `CC(=O)N(CCCn1ccnc1)c1cc(C)c2ccccc2n1` [Example 83, N-[3-(1H-Imidazol-1-yl)propyl]-N-(4-methyl-2-quinolinyl)acetamide,monoacetate] returned an inhibition at 100 µM in experiment [3] of 90%.

In the case of `Cc1ccc(C#N)c(NCC(C)Cn2ccnc2)n1` (stereo not drawn) [Example 84, 2-[[3-(1H-Imidazol-1-yl)-2-methylpropyl]amino] 6-methyl-3-pyridinecarbonitrile, dihydrochloride], the responders at 10 mg/kg was 50% in experiment [1] and 83.3% in experiment [2].

As for `Cc1ccc(C#N)c(NCCC(C)n2ccnc2)n1` (stereo not drawn) [Example 85, 2-[[3-(1H-Imidazol-1-yl)butyl]amino]-6-methyl-3-pyridinecarbonitrile, dihydrochloride], the responders at 10 mg/kg in experiment [1] was 33.3%; in experiment [2], 83.3%.

Molecule `CC(CCNc1nc2ccccc2c2ccccc12)n1ccnc1` (stereo not drawn) [Example 89, N-[3-(1H-Imidazol-1-yl)butyl]-6-phenanthridinamine] showed an inhibition at 100 µM in experiment [3] of 98%.

Molecule `Cc1ccc(C#N)c(NCc2cccnc2)n1` [Example 91, 6-Methyl-2-[(3-pyridinylmethyl)amino]-3-pyridinecarbonitrile] gave an inhibition at 100 µM in experiment [3] of 81%.

In turn, `Cc1ccc(C#N)c(NCc2ccncc2)n1` [Example 93, 6-Methyl-2-[(4-pyridinylmethyl)amino]-3-pyridinecarbonitrile] gave an inhibition at 100 µM in experiment [3] of 86%.

Consider `Cc1cc(NCCc2cccnc2)nc2ccccc12` [Example 95, 4-Methyl-N-[2-(3-pyridinyl)ethyl]-2-quinolinamine,dihydrochloride], for which the responders at 10 mg/kg is 16.7% in experiment [1] and 66.7% in experiment [2].

For the molecule `Cc1ccc(C#N)c(NCCc2ccncc2)n1` [Example 97, 6-Methyl-2-[[2-(4-pyridinyl)ethyl]amino]-3-pyridinecarbonitrile, dihydrochloride], the responders at 10 mg/kg in experiment [1] is 0%; in experiment [2], 50%.

For `Cc1cc(C)c2ccc(NCCCCc3cccnc3)nc2n1` [Example 109, 5,7-Dimethyl-N-[4-(3-pyridinyl)butyl]-1,8-naphthyridin-2-amine,(E)-2-butenedioate (1:2)], the inhibition at 100 µM in experiment [3] was determined as 97%.

In experiment [3], `c1ccc(-c2cc(NCCCCc3cccnc3)nc3ccccc23)cc1` [Example 110, 4-Phenyl-N-[4-(3-pyridinyl)butyl]-2-quinolinamine] yielded an inhibition at 100 µM of 99%.

Molecule `Cc1cccc2c(-c3ccccc3)cc(NCCCCc3cccnc3)nc12` [Example 111, 8-Methyl-4-phenyl-N-[4-(3-pyridinyl)butyl]-2-quinolinamine] gave an inhibition at 100 µM in experiment [3] of 85%.

In experiment [3], `O=[N+]([O-])c1cccnc1NCCCCc1ccncc1` [compound 100] returned an inhibition at 100 µM of 88%.
